Assays:
FLT3-D835Y = molecular target: T1, FLT3-D835Y (Homo sapiens, UniProt P36888, D835Y); assay: FLT3-D835Y biochemical kinase assay (AlphaScreen)
T1 construct: purchased Invitrogen PV3967
T1 sequence (P36888 27-993 D835Y): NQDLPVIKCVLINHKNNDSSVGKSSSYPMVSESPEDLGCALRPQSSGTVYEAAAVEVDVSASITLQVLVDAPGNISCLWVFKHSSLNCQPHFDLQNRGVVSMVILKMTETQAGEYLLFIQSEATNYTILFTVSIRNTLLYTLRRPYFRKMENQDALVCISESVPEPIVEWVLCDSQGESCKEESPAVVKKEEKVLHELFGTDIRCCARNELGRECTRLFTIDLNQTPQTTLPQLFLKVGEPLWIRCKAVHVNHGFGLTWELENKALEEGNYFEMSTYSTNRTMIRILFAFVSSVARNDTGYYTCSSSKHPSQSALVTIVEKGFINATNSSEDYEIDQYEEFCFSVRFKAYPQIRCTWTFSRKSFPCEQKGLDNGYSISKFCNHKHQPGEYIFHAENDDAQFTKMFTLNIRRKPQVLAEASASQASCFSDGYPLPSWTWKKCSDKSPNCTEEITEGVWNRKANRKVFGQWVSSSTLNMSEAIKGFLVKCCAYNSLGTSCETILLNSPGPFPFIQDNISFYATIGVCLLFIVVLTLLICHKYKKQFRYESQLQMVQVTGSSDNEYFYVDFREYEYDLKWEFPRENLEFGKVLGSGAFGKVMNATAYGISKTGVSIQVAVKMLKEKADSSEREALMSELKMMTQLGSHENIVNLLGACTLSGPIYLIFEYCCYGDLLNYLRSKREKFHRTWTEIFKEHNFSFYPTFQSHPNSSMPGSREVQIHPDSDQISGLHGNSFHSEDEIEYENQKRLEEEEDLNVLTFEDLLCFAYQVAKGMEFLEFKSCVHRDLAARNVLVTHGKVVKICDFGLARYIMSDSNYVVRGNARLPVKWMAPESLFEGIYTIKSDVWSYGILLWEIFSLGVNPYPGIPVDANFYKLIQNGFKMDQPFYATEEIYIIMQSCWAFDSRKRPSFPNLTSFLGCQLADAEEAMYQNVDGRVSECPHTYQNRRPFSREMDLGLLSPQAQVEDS
Outline: (§1)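 Recombinant enzyme phosphorylated biotin-poly(Glu4-Tyr) peptide (30 nM final); ATP final 10 μM for FLT3-D835Y, 100 μM for FLT3-ITD. AlphaScreen read-out: streptavidin donor and anti-phosphotyrosine (PY20) acceptor beads, 20 and 60 min at room temperature; inhibition seen as drop in 580 nm proximity signal; IC50 determined.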

FLT3-ITD = molecular target: T2, FLT3-ITD (Homo sapiens, UniProt P36888); assay: FLT3-ITD biochemical kinase assay (AlphaScreen)
T2 construct: FLT3-ITD; Invitrogen #PV6190
T2 sequence (P36888 1-993): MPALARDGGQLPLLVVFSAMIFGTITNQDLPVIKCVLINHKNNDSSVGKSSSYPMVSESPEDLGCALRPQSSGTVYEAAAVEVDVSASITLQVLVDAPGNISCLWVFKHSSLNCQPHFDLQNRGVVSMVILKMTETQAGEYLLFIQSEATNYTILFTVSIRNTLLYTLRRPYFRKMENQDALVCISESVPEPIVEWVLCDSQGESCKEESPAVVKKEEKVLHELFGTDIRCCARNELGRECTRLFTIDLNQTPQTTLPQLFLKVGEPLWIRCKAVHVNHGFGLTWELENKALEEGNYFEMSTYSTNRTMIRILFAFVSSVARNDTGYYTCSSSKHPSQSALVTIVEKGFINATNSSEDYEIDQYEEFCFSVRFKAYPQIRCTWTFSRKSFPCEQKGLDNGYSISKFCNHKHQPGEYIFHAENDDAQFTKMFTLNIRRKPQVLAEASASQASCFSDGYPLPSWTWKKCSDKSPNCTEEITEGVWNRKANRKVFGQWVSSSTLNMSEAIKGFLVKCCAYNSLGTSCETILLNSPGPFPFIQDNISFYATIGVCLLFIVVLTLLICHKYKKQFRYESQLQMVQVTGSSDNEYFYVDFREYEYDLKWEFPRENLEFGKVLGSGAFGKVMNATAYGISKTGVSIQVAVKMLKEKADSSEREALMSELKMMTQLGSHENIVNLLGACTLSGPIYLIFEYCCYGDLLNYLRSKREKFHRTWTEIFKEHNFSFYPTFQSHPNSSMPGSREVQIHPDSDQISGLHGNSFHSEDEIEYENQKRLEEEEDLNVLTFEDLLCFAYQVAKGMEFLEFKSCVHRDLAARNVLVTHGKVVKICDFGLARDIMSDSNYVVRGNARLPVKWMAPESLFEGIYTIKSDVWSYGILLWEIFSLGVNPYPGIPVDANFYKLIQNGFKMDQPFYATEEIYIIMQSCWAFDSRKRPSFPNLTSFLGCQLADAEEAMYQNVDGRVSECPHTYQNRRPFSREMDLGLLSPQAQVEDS
Outline: as §1

c-Kit = c-Kit (Homo sapiens, UniProt P10721); assay: c-Kit biochemical assay (per US 2007/0032519)
c-Kit, sequence (P10721 26-976): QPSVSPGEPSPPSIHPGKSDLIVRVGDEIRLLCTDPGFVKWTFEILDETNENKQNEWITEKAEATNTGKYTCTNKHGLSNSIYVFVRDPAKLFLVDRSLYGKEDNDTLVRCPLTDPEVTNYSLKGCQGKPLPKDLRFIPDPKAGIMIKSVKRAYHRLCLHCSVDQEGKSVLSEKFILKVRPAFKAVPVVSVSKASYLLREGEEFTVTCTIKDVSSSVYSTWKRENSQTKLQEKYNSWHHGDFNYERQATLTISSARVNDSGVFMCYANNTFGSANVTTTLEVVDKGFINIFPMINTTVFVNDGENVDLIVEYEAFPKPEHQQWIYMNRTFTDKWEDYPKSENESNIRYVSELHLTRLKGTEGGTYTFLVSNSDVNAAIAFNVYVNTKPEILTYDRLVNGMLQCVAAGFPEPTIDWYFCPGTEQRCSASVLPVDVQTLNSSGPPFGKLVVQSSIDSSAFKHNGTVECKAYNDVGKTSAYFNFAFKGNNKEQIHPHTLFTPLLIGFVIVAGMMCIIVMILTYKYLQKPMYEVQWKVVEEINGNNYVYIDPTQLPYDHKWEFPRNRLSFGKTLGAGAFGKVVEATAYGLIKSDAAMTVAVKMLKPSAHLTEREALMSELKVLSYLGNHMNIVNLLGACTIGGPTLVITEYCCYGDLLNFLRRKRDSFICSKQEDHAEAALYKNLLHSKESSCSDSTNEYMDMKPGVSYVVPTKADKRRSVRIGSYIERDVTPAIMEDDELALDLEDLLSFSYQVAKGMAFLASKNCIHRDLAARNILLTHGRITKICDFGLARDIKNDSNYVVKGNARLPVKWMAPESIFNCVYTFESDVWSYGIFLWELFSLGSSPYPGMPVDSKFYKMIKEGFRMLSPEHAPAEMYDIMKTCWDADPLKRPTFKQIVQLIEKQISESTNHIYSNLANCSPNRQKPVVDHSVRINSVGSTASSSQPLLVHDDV
Method: The following Table 2 provides data indicating FLT3 ITD, FLT3 D835Y, and KIT biochemical activity, and BaF3 FLT3 ITD/F69L cellular inhibitory activity for exemplary compounds described in this disclosure. In the table below, activity is provided as follows: +++=0.0001<IC50<1 μM; ++=1 μM<IC50<10 μM, +=10 μM<IC50<200 μM. Assays for the biochemical activity of c-Kit and FMS were conducted according to those assays described in US Patent Application Publication number US 2007/0032519, the disclosure of which is hereby incorporated by reference in its entirety.

Structure (SMILES) | IC50 (FLT3-D835Y) [µM] | IC50 (FLT3-ITD) [µM] | IC50 (c-Kit) [µM]
COc1cnc2[nH]cc(-c3ccc4occc4c3)c2c1 [P-036, 3-(benzofuran-5-yl)-5-methoxy-1H-pyrrolo[2,3-b]pyridine] | 10 to 200 | 1 to 10 | 10 to 200
CS(=O)(=O)Nc1cccc(-c2cnc3[nH]cc(-c4ccc5c(c4)NCCO5)c3n2)c1 [P-085, N-[3-[7-(3,4-dihydro-2H-1,4-benzoxazin-6-yl)-5H-pyrrolo[2,3-b]pyrazin-2-yl]phenyl]methanesulfonamide] | 0.0001 to 1 | 0.0001 to 1 | 1 to 10
CC(C)(C)n1cnc2ccc(-c3c[nH]c4ncc(-c5ccc(C(=O)O)nc5)nc34)cc21 [P-376, 5-[7-(3-tert-butylbenzimidazol-5-yl)-5H-pyrrolo[2,3-b]pyrazin-2-yl]pyridine-2-carboxylic acid] | 0.0001 to 1 | 0.0001 to 1 | 0.0001 to 1
COc1cc(-c2cnc3[nH]cc(-c4ccc5ncn(C)c5c4)c3n2)ccn1 [P-045, 2-(2-methoxy-4-pyridyl)-7-(3-methylbenzimidazol-5-yl)-5H-pyrrolo[2,3-b]pyrazine] | 0.0001 to 1 | 0.0001 to 1 | 10 to 200
Cn1cnc2ccc(-c3c[nH]c4ncc(-c5cccc(OC(F)(F)F)c5)cc34)cc21 [P-131, 1-methyl-6-[5-[3-(trifluoromethoxy)phenyl]-1H-pyrrolo[2,3-b]pyridin-3-yl]benzimidazole] | 0.0001 to 1 | 0.0001 to 1 | 10 to 200
CC(C)S(=O)(=O)Nc1cccc(-c2cnc3[nH]cc(-c4ccc5ncn(C)c5c4)c3c2)c1 [P-096, N-[3-[3-(3-methylbenzimidazol-5-yl)-1H-pyrrolo[2,3-b]pyridin-5-yl]phenyl]propane-2-sulfonamide] | 0.0001 to 1 | 0.0001 to 1 | 1 to 10
CS(=O)(=O)Nc1cccc(-c2cnc3[nH]cc(-c4ccc5[nH]cnc5c4)c3n2)c1 [P-011, N-[3-[7-(1H-benzimidazol-5-yl)-5H-pyrrolo[2,3-b]pyrazin-2-yl]phenyl]methanesulfonamide] | 0.0001 to 1 | 0.0001 to 1 | 1 to 10
Cn1cnc2ccc(-c3c[nH]c4ncc(Cl)cc34)cc21 [P-019, 5-chloro-3-(3-methylbenzimidazol-5-yl)-1H-pyrrolo[2,3-b]pyridine] | 0.0001 to 1 | 0.0001 to 1 | 10 to 200
COc1cnc2[nH]cc(-c3cnc4c(c3)ncn4C)c2c1 [P-055, 6-(5-methoxy-1H-pyrrolo[2,3-b]pyridin-3-yl)-3-methyl-imidazo[4,5-b]pyridine] | 10 to 200 | 0.0001 to 1 | 10 to 200
Cn1cnc2ccc(-c3c[nH]c4ncc(-c5cnc(C6CC6)nc5)cc34)cc21 [P-039, 5-(2-cyclopropylpyrimidin-5-yl)-3-(3-methylbenzimidazol-5-yl)-1H-pyrrolo[2,3-b]pyridine] | 0.0001 to 1 | 0.0001 to 1 | 1 to 10
Cn1cnc2ccc(-c3c[nH]c4ncc(C5=CCN(C(=O)C6CC6)C5)nc34)cc21 [P-082, cyclopropyl-[3-[7-(3-methylbenzimidazol-5-yl)-5H-pyrrolo[2,3-b]pyrazin-2-yl]-2,5-dihydropyrrol-1-yl]methanone] | 0.0001 to 1 | 0.0001 to 1 | 1 to 10
COC(=O)c1cc(-c2cnc3[nH]cc(-c4ccc5ncn(C)c5c4)c3c2)ccc1C [P-119] | 0.0001 to 1 | 0.0001 to 1 | 10 to 200
CS(=O)(=O)Nc1cccc(-c2cnc3[nH]cc(-c4ccc5c(c4)N(CC4CC4)CCO5)c3n2)c1 [P-081, N-[3-[7-[4-(cyclopropylmethyl)-2,3-dihydro-1,4-benzoxazin-6-yl]-5H-pyrrolo[2,3-b]pyrazin-2-yl]phenyl]methanesulfonamide] | 0.0001 to 1 | 0.0001 to 1 | 10 to 200
CS(=O)(=O)Nc1cccc(-c2cnc3[nH]cc(-c4ccc5[nH]cnc5c4)c3c2)c1 [P-013, N-[3-[3-(1H-benzimidazol-5-yl)-1H-pyrrolo[2,3-b]pyridin-5-yl]phenyl]methanesulfonamide] | 0.0001 to 1 | 0.0001 to 1 | 1 to 10
COc1cnc2[nH]cc(-c3cnc4[nH]cnc4c3)c2c1 [P-052, 6-(5-methoxy-1H-pyrrolo[2,3-b]pyridin-3-yl)-3H-imidazo[4,5-b]pyridine] | 0.0001 to 1 | 0.0001 to 1 | 1 to 10
CC(C)(O)C#Cc1cnc2[nH]cc(-c3ccc4ncn(C(C)(C)C)c4c3)c2n1 [P-377, 4-[7-(3-tert-butylbenzimidazol-5-yl)-5H-pyrrolo[2,3-b]pyrazin-2-yl]-2-methyl-but-3-yn-2-ol] | 0.0001 to 1 | 0.0001 to 1 | 1 to 10
COc1cnc2[nH]cc(-c3ccc4ncsc4c3)c2c1 [P-029, 6-(5-methoxy-1H-pyrrolo[2,3-b]pyridin-3-yl)-1,3-benzothiazole] | 0.0001 to 1 | 0.0001 to 1 | 1 to 10
Cn1cnc2ccc(-c3c[nH]c4ncc(F)cc34)cc21 [P-028, 5-fluoro-3-(3-methylbenzimidazol-5-yl)-1H-pyrrolo[2,3-b]pyridine] | 0.0001 to 1 | 0.0001 to 1 | 10 to 200
COc1cnc2[nH]cc(-c3ccc4scnc4c3)c2c1 [P-051, 5-(5-methoxy-1H-pyrrolo[2,3-b]pyridin-3-yl)-1,3-benzothiazole] | 0.0001 to 1 | 0.0001 to 1 | 10 to 200
CS(=O)(=O)Nc1cccc(-c2cnc3[nH]cc(-c4ccc5c(c4)OC(F)(F)O5)c3n2)c1 [P-064, N-[3-[7-(2,2-difluoro-1,3-benzodioxol-5-yl)-5H-pyrrolo[2,3-b]pyrazin-2-yl]phenyl]methanesulfonamide] | 1 to 10 | 1 to 10 | 10 to 200
Cn1cnc2ccc(-c3c[nH]c4ncc(-c5cccc(NS(C)(=O)=O)c5)nc34)cc21 [P-038, N-[3-[7-(3-methylbenzimidazol-5-yl)-5H-pyrrolo[2,3-b]pyrazin-2-yl]phenyl]methanesulfonamide] | 0.0001 to 1 | 0.0001 to 1 | 10 to 200
COc1ccc(-c2cnc3[nH]cc(-c4ccc5ncn(C)c5c4)c3n2)cn1 [P-041, 2-(6-methoxy-3-pyridyl)-7-(3-methylbenzimidazol-5-yl)-5H-pyrrolo[2,3-b]pyrazine] | 0.0001 to 1 | 0.0001 to 1 | 1 to 10
